Test results taken from article PMC4414920 (European journal of pharmaceutical sciences : official …, 2015).
Entries after “also recorded” stand apart in the source; their conditions may differ. Where two headings read alike, the source gives them in different places. Each block holds one compound with its values, some of them ahead of it.

Experiments:
[1] = various animals; ref Trnavsky and Zachar, 1975; cited from earlier work
P450 2C19 = settings: 50 mg/day for 14 days; in vivo mephenytoin oxidation; ref Chen et al., 2003; cited from earlier work
[2] = cats; ref Parton et al., 2000; cited from earlier work
[3] = dogs; ref Parton et al., 2000; cited from earlier work
[4] = tested on: recombinant human P450s 2C8, 2C9, 2C19, 2D6, 2E1, and 3A4; settings: recombinant enzyme
[5] = humans; ref Trnavsky and Zachar, 1975; cited from earlier work
human liver microsomes [6] = format: in vitro ADME
human liver microsomes [7] = format: in vitro ADME; settings: 100 μM desferrioxamine, Chelex 100-treated buffers, 0.5 nmol microsomal P450, 30 minutes
[8] = humans; ref Hutt et al., 1986; cited from earlier work
[9] = fluorescence detection, aspirin after deacetylation

- concentrations of the products with recombinant P450s [4]: too low to quantitate
- product formation (2,3-DHBA or 2,5-DHBA) in the absence of NADPH (human liver microsomes [6]): No product formation
- maximum rate of 5-hydroxylation compared with salicylic acid (human liver microsomes [6]; data not shown): approximately five times lower
- 2,5-DHBA formation with NADPH (human liver microsomes [6]; [9]): detected
Structure (SMILES): CC(=O)Oc1ccccc1C(=O)O [Aspirin, acetylsalicylic acid]
- half-life [1]: 1 to 38 h
- effect on P450 2C19 (P450 2C19): increase
- half-life [2]: 22 h
- half-life [3]: 7.5 h
- half-life [5]: ~ 6 h

Structure (SMILES): CC(=O)N(O)CCCCCNC(=O)CCC(=O)N(O)CCCCCNC(=O)CCC(=O)N(O)CCCCCN [desferrioxamine]
- effect on formation of 2,3- and 2,5-DHBA (human liver microsomes [7]): did not inhibit but instead increased; also recorded: no inhibition

- product formation (2,3-DHBA or 2,5-DHBA) in the absence of NADPH (human liver microsomes [6]): not detected
- 2,3-DHBA formation with NADPH (human liver microsomes [6]; [9]): detected
- 2,5-DHBA formation with NADPH (human liver microsomes [6]; [9]): detected
Structure (SMILES): O=C(O)c1ccccc1O [salicylic acid]
- directly excreted [8]: 1–31%

Structure (SMILES): O=C(O)CNC(=O)c1ccccc1O [salicyluric acid]
- share of the products of salicylic acid metabolism [8]: 20–65%
